Values of other authors as cited in US12133854B2 (SLAYBACK PHARMA LLC, priority 2021, dated 2024).
In brackets after ≈: the same amount, converted by molar mass. Entries after “also recorded” stand apart in the source; their conditions may differ. Where two headings read alike, the source gives them in different places.

CC#C[C@]1(O)CC[C@H]2[C@@H]3CCC4=CC(=O)CCC4=C3[C@@H](c3ccc(N(C)C)cc3)C[C@@]21C [Mifepristone, 11β-(4-dimethylaminophenyl)-17β-hydroxy-17α-(1-propynyl)-estra-4,9-dien-3-one]
Solubility in methanol, chloroform and acetone: very soluble | Solubility in water: practically insoluble; also recorded: low aqueous solubility | Solubility (above pH 2.5): less than 1 mg/mL | Solubility (in acid, pH 1.5): ~25 mg/mL (≈ 58.2 mM)
